Laboratory results: patent publication US6391902B1, “Substituted benzofuranoindoles and indenoindoles as novel potassium channel openers” (American Home Products Corporation, priority 1998, dated 2002)

Experiments:
[1] = system: Bladder Tissue; assay: Relaxation of KCl-stimulated isolated rat bladder strips (contractile activity); design: species or system Sprague-Dawley rats; details: Rattus norvegicus, 0.5 h
Description: Sprague-Dawley rats (150-200 g) are rendered unconscious by CO2 asphyxiation and then euthanized by cervical dislocation. The bladder is removed into warm (37° C.) physiological salt solution (PSS) of the following composition (mM): NaCl, 118.4; KCl, 4.7; CaCl2, 2.5; […]; NaHCO3, 24.9; KH2PO4, 1.2; glucose, 11.1; EDTA, 0.023; gassed with 95% O2; […]; pH 7.4. The bladder is opened and then cut into strips 1-2 mm in width and 7-10 mm in length. The strips are subsequently suspended in a 10 mL tissue bath under an initial resting tension of 1.5 g. The strips are held in place by two surgical clips one of which is attached to a fixed hook while the other is attached to an isometric force transducer. […] The carbachol is then washed out and the tissue allowed to relax to its resting level of activity. Following a further 30 min period of recovery an additional 15 mM KCl re introduced into the tissue bath. […] Following stabilization of this enhanced level of contractile activity, incremental increases in the concentration of test compound or vehicle are introduced into the tissue bath. Contractile activity is measured for each compound or vehicle concentration during the last minute of a 30 minute challenge.

[2] = system: whole rat bladder; assay: Relaxation of whole rat bladder ex-vivo (partial outlet obstruction, developed bladder pressure); design: species or system Spraque-Dawley rats; details: isolated whole bladder of rats 6 weeks after partial outlet obstruction, 30 minute challenge
Description: Several compound in this invention were tested for their ability to relax a whole rat bladder ex-vivo. The protocol for this assay is as follows.
Female Spraque-Dawley rats weighing between 200-300 g were anesthetized with Nembutol® (50 mg/kg, i.p.). After achieving adequate anesthesia, the bladder and urethra were exposed through a mid-line incision. A 4-0 silk ligature was tied around the proximal end of the urethra in the presence of a 1 mm diameter stainless steel rod. The rod was then removed resulting in a partial outlet obstruction. The wound was closed with surgical staples and the animals received 15,000 units of Bicillin® antibiotic. After a 6 week period the animals were asphyxiated with CO2 gas. Bladders for contractile analysis were placed in a physiological salt solution (PSS) at 37° C. of the following composition (in mM): NaCl (118.4), KCl (4.7), CaCl2 (2.5), MgSO4 (1.2), KH2PO4 (1.2), NaHCO3 (24.9) and D-glucose (11.1) gassed with […] to achieve a pH of 7.4.
The isolated bladders were secured through the urethral opening with a silk ligature to a length of polyethylene tubing (PE-200). […]
Following stabilization, incremental increases in the concentration of test compound or vehicle are introduced into the tissue bath. Contractile activity is measured for each compound or vehicle concentration during the last minute of a 30 minute challenge.

[3] = system: Aorta Tissue; assay: Relaxation of KCl-contracted isolated rat thoracic aortic rings (contractile force); design: species or system Sprague-Dawley rats
Description: The smooth muscle (aorta) relaxing activity of the compounds of this ivention was established in accordance with standard pharmaceutically accepted test procedures with representative compounds as follows.
Male Sprague-Dawley rats (150-200 g) are rendered unconscious by CO2 asphyxiation and then euthanized by cervical dislocation. The thoracic aorta is removed into warm (37° C.) physiological sial solution (PSS) of the following composition (mM): NaCl, 118.4; KCl, 4.7; CaCl2, 2.5; MgSO4.7H2O, 1.2; NaHCO3, 24.9; KH2PO4, 1.2; glucose, 11.1; EDTA, 0.023; gassed with 95% O2/5% CO2; pH 7.4. The aorta is cleaned of fat and loose adventitia and cut into rings 3-4 mm in width. The rings are subsequently suspended between two stainless steel wire tissue holders in a 10 mL tissue bath. One wire tissue holder is attached to a fixed hook while the other is attached to an isometric force transducer. Resting tension is set at 1 g. The tissues are to recover for a period of 60 min prior to beginning the experiment. Tissues are challenged with PSS containing 25 mM KCl to elicit a contracture. The tissues are then washed repeatedly with fresh PSS over a period of 30 min and allowed to recover to baseline tension. PSS containing 30-35 mM KCl is then introduced into the tissue bath to evoke a contracture that is allowed to stabilize for not less than 45 min. (Other stimuli such as norepinephrine, PGF2a, histamine, angiotensin II, endothelin or PSS containing 80 mM KCl may also be used to evoke a contracture as necessary). Increasing concentrations of test compound or vehicle are then added to the tissue bath in a cumulative fashion.
Isometric force development by the aortic rings is measured using a force transducer and recorded on a polygraph. The percentage inhibition of contractile force evoked by each concentration of a given test compound is used to generate a concentration-response curve. […] [Log concentration versus response curves are approximately linear between 20% and 80% of the maximum response. As such, the IC50 concentration of the drug is determined by linear regression analysis (where x=log concentration and y=% inhibition) of the data points in the 20% to 80% region of the curve.] […] Data collected from 2 animals are averaged for primary screens.

melting point: 310 °C (dec.)
IC50 [1]: 5.2 ± 1.8 µM
IC50 [2]: 5 µM
IC50 ([3]; Rattus norvegicus): 17.2 ± 2.3 µM
Ratio Aorta IC50 / Bladder IC50 ([3]; aorta IC50 divided by bladder IC50, tissue selectivity): 3.3
Compound: CC1(C)c2ccc([N+](=O)[O-])cc2-c2[nH]c3c(C(=O)O)cccc3c21 [Example 24, 10,10-Dimethyl-3-nitro-5,10-dihydro-indeno[1,2-b]indole-6-carboxylic acid]
